These results are taken from ChEMBL document CHEMBL3102772, “New natural products as new leads for antibacterial drug discovery” (Bioorg Med Chem Lett, 2014).

Series [1] has as its system Escherichia coli. Put plainly: Antibacterial activity against Escherichia coli SANK 70569 assessed as growth inhibition. The format is functional.
The test system of series [2] is Escherichia coli. Nature of the series: Antibacterial activity against Escherichia coli NCTC 10418 assessed as growth inhibition. In kind it is functional.
The test system of series [3] is Staphylococcus aureus. Put plainly: Antibacterial activity against 10 clinical isolates of methicillin resistant Staphylococcus aureus […] assessed as growth inhibition by broth dilution method. In kind it is functional. On the technique in general: Dilution methods test growth across graded concentrations, often in twofold steps.
Series [4] deals with Escherichia coli. Put plainly: Antibacterial activity against Escherichia coli MB2884 assessed as growth inhibition after 20 hrs by agar dilution method. In kind it is functional. To be noted: MB2884, 20 h. On the technique in general: Agar dilution tests growth on a series of plates holding different concentrations.
For series [5], the system named is Staphylococcus aureus. Nature of the series: Antibacterial activity against methicillin resistant Staphylococcus aureus COL MB5393 assessed as growth inhibition after 20 hrs by agar dilution method. The format is functional. As to conditions: COL MB5393, 20 h.
Series [6] relates to Staphylococcus aureus. Put plainly: Antibacterial activity against methicillin sensitive Staphylococcus aureus MB2865 assessed as growth inhibition after 20 hrs by agar dilution method. The format is functional. As to conditions: MB2865, 20 h.
Series [7] deals with Escherichia coli. Nature of the series: Antibacterial activity against Escherichia coli MB5746 harboring envA1/TolC efflux pump mutant assessed as growth inhibition after 20 hrs by agar dilution method. In kind it is functional. To be noted: MB5746, 20 h.
Series [8] concerns Staphylococcus aureus. Nature of the series: Antibacterial activity against 24 clinical isolates of methicillin resistant Staphylococcus aureus […] assessed as growth inhibition by broth dilution method. The format is functional.
The subject of series [9] is Pseudomonas aeruginosa. Put plainly: Antibacterial activity against Pseudomonas aeruginosa ATCC 27853 assessed as growth inhibition by microdilution method. The format is functional.
In series [10] the test system is Pseudomonas aeruginosa. Put plainly: Antibacterial activity against Pseudomonas aeruginosa ATCC 27853 infected in sc dosed mouse septisemia model measured at 1 to 5 hrs. The format is functional. To be noted: ATCC 27853, sc.
A further series concerns Acinetobacter baumannii. Put plainly: Antibacterial activity against Acinetobacter baumannii clinical isolate assessed as growth inhibition. The format is functional.
The subject of series [11] is Staphylococcus aureus. Put plainly: Antibacterial activity against Staphylococcus aureus assessed as growth inhibition. In kind it is functional.
The subject of the next series is HepG2. Nature of the series: Cytotoxicity against human HepG2 cells. The format is cell-based.
Series [12] has as its system Pseudomonas aeruginosa. Put plainly: Antibacterial activity against Pseudomonas aeruginosa clinical isolate assessed as growth inhibition. In kind it is functional.
The test system of another series is Klebsiella pneumoniae. Put plainly: Antibacterial activity against Klebsiella pneumoniae clinical isolate assessed as growth inhibition. The format is functional.
Series [13] concerns Escherichia coli. Nature of the series: Antibacterial activity against Escherichia coli clinical isolate assessed as growth inhibition. In kind it is functional.
Series [14] can be described thus: Cytotoxicity against human Fa2N-4 cells. In kind it is cell-based.
For another series, the system named is Bacillus subtilis. Nature of the series: Antibacterial activity against Bacillus subtilis assessed as growth inhibition. In kind it is functional.
For series [15], the system named is Pseudomonas aeruginosa. Nature of the series: Antibacterial activity against Pseudomonas aeruginosa PA14 assessed as growth inhibition after 16 to 20 hrs by agar diffusion assay. The format is functional, organism-based. In general terms: Agar diffusion results depend on both activity and mobility in agar.
The test system of series [16] is Pseudomonas aeruginosa. Nature of the series: Bactericidal activity against Pseudomonas aeruginosa PA14 after 16 to 20 hrs by agar diffusion assay. The format is functional.
Series [17] relates to Escherichia coli. Nature of the series: Antibacterial activity against Escherichia coli PAS0232 harboring SPase P84S mutant assessed as growth inhibition after 24 hrs by micro-broth dilution method. In kind it is functional. To be noted: PAS0232, 24 h.
Series [18] has as its system Staphylococcus epidermidis. Nature of the series: Antibacterial activity against Staphylococcus epidermidis PAS9001 harboring SPase S92P mutant assessed as growth inhibition after 24 hrs by micro-broth dilution method. The format is functional. To be noted: PAS9001, 24 h.
Series [19] relates to Staphylococcus epidermidis. Put plainly: Antibacterial activity against wild type Staphylococcus epidermidis RP62A assessed as growth inhibition after 24 hrs by micro-broth dilution method. In kind it is functional.
The subject of series [20] is Pseudomonas aeruginosa. Put plainly: Antibacterial activity against Pseudomonas aeruginosa PAS2006 harboring SPase P84S mutant assessed as growth inhibition after 24 hrs by micro-broth dilution method. In kind it is functional. To be noted: PAS2006, 24 h.
Series [21] deals with Staphylococcus aureus. Put plainly: Antibacterial activity against Staphylococcus aureus PAS8001 harboring SPase P29S mutant assessed as growth inhibition after 24 hrs by micro-broth dilution method. In kind it is functional. As to conditions: PAS8001, 24 h.
The nature of series [22]: Ratio of MIC for Staphylococcus epidermidis PAS9001 harboring SPase S92P mutant to MIC for wild type Staphylococcus epidermidis RP62A. In kind it is functional.

Converted amounts (≈) assume the structure as drawn. Starred links: 1 amine or outer side, 2 acyl side, 3 side chain; linkers in the order of their positions; H or OH if unused. Positions of bridges follow the written chain, without caps; N, C: chain ends. Non-standard residues stand in square brackets, D forms with d. Residues, ends and D or L forms follow the SMILES beside them. X1 = CC(C)=CCc1ccc(Cl)c2[nH]cc(CC(N[*:1])C(=O)[*:2])c12; Trp(7-Cl) = N[CH](Cc1c[nH]c2c(Cl)cccc12)C(=O)O; Malonyl = O=C(CC(=O)[*:2])[*:1]; Cya = N[CH](CS(=O)(=O)O)C(=O)O; Dab = NCC[C@H](N)C(=O)O

By MIC is commonly meant the smallest concentration in the dilution series that meets the test's criterion for growth inhibition. Turning to `CCCCCC[C@H]1OC(=O)CNC(=O)[C@H]([C@H](C)O)NC(=O)[C@H](CO)NC(=O)[C@H]([C@H](C)CC)NC(=O)[C@H](CC(C)C)N(C)C(=O)[C@@H]1C`, the MIC in the series on Escherichia coli [1] was determined as 12.5 µg/mL (≈ 19.1 µM).

Turning to `CCC[C@@H]1OC(=O)[C@@H](C)C[C@H](C)CCCCC(=O)CCC[C@@H](CC)CC/C=C(\COC)CC[C@@H](O)[C@@H](O)C[C@H](O)CNC1=O`, the MIC in the series with Escherichia coli [2] came to 3.12 µg/mL (≈ 4.98 µM).

For `CCCC(C)/C=C(/C)C(=O)OC(CCCCCCC/C=C/C(=O)NCCC(=O)NC(CS(=O)(=O)O)C(=O)N(C)C1C(=O)NC(C)C(=O)NC(C(=O)O)Cc2ccc(OS(=O)(=O)O)c(c2)-c2cc1cc(OS(=O)(=O)O)c2O[C@H]1O[C@H](C)[C@@H](O)[C@H](O)[C@@H]1O)CCC(C)C` (stereo partly drawn), the MIC in the series with Staphylococcus aureus [3] was 0.5 µg/mL (≈ 0.371 µM).

With `C=C1CC[C@@H](O[C@H]2C[C@@](O)([C@H](C)NC(=O)c3[nH]c(C)c(Cl)c3Cl)[C@H](O)[C@@H](C)O2)[C@@H]2C=C[C@H](C)C(/C(O)=C3\C(=O)[C@H](C(C)C)N([C@H]4O[C@H](C)[C@H](OC(N)=O)[C@H](OC(C)=O)[C@@H]4OC)C3=O)[C@@H]12` (stereo partly drawn) [KIBDELOMYCIN], the MIC in the series on Escherichia coli [4] was > 64 µg/mL; in the series on Staphylococcus aureus [5] it was 0.5 µg/mL (≈ 0.532 µM); in the series on Staphylococcus aureus [6] it was 2 µg/mL (≈ 2.13 µM); in the series on Escherichia coli [7] it was 32 µg/mL (≈ 34 µM).

`CC(C)=CCc1ccc(Cl)c2[nH]cc(CC3NC(=O)C(Cc4c[nH]c5c(Cl)cccc45)NC(=O)C4CCCN4C(=O)C(CS(=O)(=O)O)NC(=O)C(NC(=O)C(NC(=O)C(C)NC(=O)CC(=O)O)C(C)C)COC(=O)C(CO)NC(=O)C(CC(C)C)NC(=O)C(C(C)C)NC3=O)c12` (stereo not drawn) (Malonyl-AVS[Cya]P[Trp(7-Cl)][X1]VLS; ester 3-C; configuration not given here): the MIC in the series on Staphylococcus aureus [8] is 16 µg/mL (≈ 11.4 µM).

One may read the ED50 as the midpoint of the dose-response relation. A low value points to an effect at a small dose. Turning to `CC[C@H](C)[C@@H]1NC(=O)[C@H](Cc2c[nH]c3ccccc23)NC(=O)[C@H]([C@@H](C)O)NC(=O)[C@@H]2CCCN2C(=O)[C@@H]2CCCN2C(=O)[C@H](CCN)NC(=O)[C@H](C)NC(=O)[C@H](CCN)NC(=O)[C@H](CCN)NC(=O)[C@H](Cc2c[nH]c3ccccc23)NC(=O)[C@H](CCN)NC(=O)[C@H](CCN)NC(=O)[C@H](CCCCN)NC(=O)[C@H](CCN)NC1=O` (cyclo(A[Dab]PPTWI[Dab]K[Dab][Dab]W[Dab][Dab])), in the series on Pseudomonas aeruginosa [9], the MIC worked out at 0.008 µg/mL. This compound also gave a 50% effective dose (ED50) in the series on Pseudomonas aeruginosa [10] of 0.25 mg/kg.

For `[C-]#[N+]C(=C)[C@@](Cc1ccc(OC)cc1)([N+]#[C-])C1C[C@@H](OC(=O)CO)CC[C@@H]1O` (stereo partly drawn), the minimum inhibitory concentration (MIC) with Acinetobacter baumannii was 0.256 µg/mL (≈ 0.667 µM); in the series with Staphylococcus aureus [11], > 128 µg/mL; in the series on Pseudomonas aeruginosa [12], 0.256 µg/mL (≈ 0.667 µM); with Klebsiella pneumoniae, 0.256 µg/mL (≈ 0.667 µM); in the series with Escherichia coli [13], 0.256 µg/mL (≈ 0.667 µM). Moreover, the Activity (with HepG2; in series [14]) was > 512 µg/mL each time.

Turning to `C/C(=C\c1ccc(N(C)C)cc1)C(=O)N[C@@H]1[C@H](O)[C@@H](O)[C@H]2OC(OC(C(=O)O)C(O)CO)O[C@H]2[C@@H]1N(C)C` (stereo partly drawn), the minimal inhibitory concentration (MIC) with Bacillus subtilis was determined as 70 µg/mL (≈ 130 µM).

For `CCCCCCCCCC[C@H]1OC(=O)CNC(=O)[C@H]([C@H](C)O)NC(=O)[C@H](CO)NC(=O)[C@H]([C@H](C)CC)NC(=O)[C@H](CC(C)C)N(C)C(=O)[C@@H]1C`, the MIC in the series on Escherichia coli [1] was determined as 1.56 µg/mL (≈ 2.19 µM).

What is called IC50 is the midpoint of a concentration-inhibition curve. One may read the MBC as the lowest tested concentration that kills the bacteria rather than only halting them. Turning to `CCCCCCC(CCCCCC(O)C(N)=O)OC(=O)C1CC=CN1C(=O)c1ccccc1O` (stereo not drawn), the IC50 in the series with Pseudomonas aeruginosa [15] is 0.16 µg/mL (≈ 0.337 µM). The compound further yielded an MBC in the series with Pseudomonas aeruginosa [16] of 100 µg/mL (≈ 211 µM).

Regarding `CCCCCCCCCCCCCCCC(=O)N(C)[C@H](CO)C(=O)N[C@H](C)C(=O)NCC(=O)N(C)[C@@H]1C(=O)N[C@@H](C)C(=O)N[C@H](C(=O)O)Cc2ccc(O)c(c2)-c2cc1ccc2O` [ARYLOMYCIN C16], the MIC with Escherichia coli [17] turned out to be 4 µg/mL (≈ 4.54 µM); in series [18], 8 µg/mL (≈ 9.08 µM); in series [19], 0.25 µg/mL (≈ 0.284 µM); in the series on Pseudomonas aeruginosa [20], 8 µg/mL (≈ 9.08 µM); with Staphylococcus aureus [21], 2 µg/mL (≈ 2.27 µM). For the same compound, the Ratio in series [22] is 32.

For the compound `CCC[C@@H]1OC(=O)[C@@H](C)C[C@H](C)CCCCC(=O)CCC[C@@H](CC)/C=C/C=C(\COC)CC[C@@H](O)[C@@H](O)C[C@H](O)CNC1=O`, in the series on Escherichia coli [2], the minimum inhibitory concentration (MIC) worked out at 6.25 µg/mL (≈ 10 µM).
